Patent US7795386B2, “Peptides comprising an isoDGR motif” (Molmed SpA, priority 2004, dated 2010)
pIC50: −log10 of the molar value. Like-named read-outs stand apart in the source and are kept apart here. *1 amine or outer side, *2 acyl side, *3 side chain or, on linkers, in order; H or OH if unused. Where a SMILES comes first, the peptide text is derived from it. Bridges are numbered along the chain shown (N, C = ends). [ ]: non-standard residue; d: D form. βAsp = O=C(O)[C@H](CC(=O)[*:2])N[*:1]

Key:
[1] = stability / deamidation kinetics of peptides by RP-HPLC; format: physicochemical; details: for stability under integrin binding assay conditions: assay conditions of competitive binding
Method: RP-HPLC analysis of NGR-pep and its synthetic deamidation products (DGR-pep and isoDGR-pep) before and after incubation for 4 h at 37° C. in 0.1 M ammonium bicarbonate buffer, pH 8.5 (A and B) and in DMEM, pH 7.3 (A, inset). RP-HPLC was performed on a C-18 column (PepMap C18, PerSeptive Biosystem) as follows: buffer A, 0.1% trifluoroacetic acid (TFA) in water; buffer B, 95% acetonitrile, 0.1% TFA; 0% B for 10 min, linear gradient 20-40% B in 30 min, 100% B for 10 min; 0% B for 15 min (flow rate, 0.5 ml/min). Peak 1, 2 and 3 were identified by spiking the NGR-pep, after 2 h of incubation, with equal amount of the indicated peptide (C). NGR-pep (peak 1) rapidly converts to compounds corresponding to DGR-pep (peak 2) and isoDGR-pep (peak 3) (half-life, 2-4 h).
The stability of NGR and the kinetics of LisoDGR or DDGR formation at pH 7.3 (DMEM) and pH 8.5 (ammonium bicarbonate), were then investigated. To this aim the CNGRCGVRY (SEQ ID NO: 42) peptide (called NGR-pep) was synthesized and analyzed by reverse-phase HPLC, before and after incubation at 37° C. Residues GVRY (SEQ ID NO: 72) were added to the C-terminus of CNGRC (SEQ ID NO: 6) to enable column adsorption. In addition five peptides called, DGR-pep, D-DGR-pep, isoDGR-pep, D-isoDGR and SGR-pep, corresponding to the same sequence of NGR-pep except for the presence of D, D-D, L-isoD, D-isoD and S, respectively in place of N were prepared. The half-life of NGR-pep at pH 7.3 and 8.5, estimated from the height of the main chromatographic peak (peak 1), was about 4 and 2 h, respectively (FIG. 5A, inset). Peptides corresponding to deamidation products were stable under these conditions (FIG. 5B).
To identify peaks and to verify that the measured half-life correspond to Asn deamidation, and not to other structural changes, we analyzed heat-treated NGR-pep peptide spiked with fresh NGR-pep, or DGR-pep or isoDGR-pep peptides.

αvβ3 = target: T1, αvβ3 (Homo sapiens, UniProt P05106+P06756); assay: IC50 (μM)
T1 construct: purchased Immunological Sciences
Source text: Table printed on a drawing sheet, Figure 7
Head of the field: IC50 (μM)
The patent's description of the figure: FIG. 7 Competitive binding of NGR-TNF to αvβ3 with NGR-pep and its deamidated products to αvβ3.
First copying reader's note: Legend table of panel A (inhibition of bio-NGR-TNF binding to αvβ3): the first three body rows belong to the upper plot and the last five to the lower plot, which prints no head of its own; the plot marker symbols are left out.
Where the first naming reader finds the target: description_of_the_figure: FIG. 7 Competitive binding of NGR-TNF to αvβ3 with NGR-pep and its deamidated products to αvβ3.

αvβ3 integrin = target: T2, αvβ3 integrin (Homo sapiens, UniProt P05106+P06756); assay: competitive binding of biotinylated FN-I5/streptavidin-peroxidase complexes to αvβ3-coated plates; details: in words, FIG. 6C
T2 construct: purchased Immunological Sciences
Method: (C) Competitive binding of biotinylated FN-I5/streptavidin-peroxidase complexes to αvβ3-coated plates with various amounts of FN-I4-5 or FN-I4-5SGS (upper panel or peptides corresponding to the NGR loop (residues 258-271) of FN-I5 before and after heat treatment (lower panel).
Binding of biotinylated peptides (CNGRC (SEQ ID NO: 6)-TNF1-11, CARAC (SEQ ID NO: 36)-TNF1-11 and FN-I5) to purified integrins was studied using streptavidin-peroxidase conjugate complexes. Complexes were prepared by mixing various quantities (0.5-1 μg) of heat-treated biotinylated peptides in DPBS containing 3% BSA with 0.03 units of streptavidinperoxidase (binding capacity: 1 μg of biotin/unit of streptavidin-peroxidase) (final volume 15 μl). Complexes were diluted in 3% BSA-DPBS (1:500), added to microtiterplates coated with integrins as described above, and incubated for 2 h at room temperature. After washing with DPBS, bound peroxidase was detected by chromogenic reaction as described above. Each assay was carried out in triplicate.
The binding of heat-treated FN-I5, CNGRC (SEQ ID NO: 6)-TNF and short peptides to purified αvβ3, αvβ5, α5β1 and α1β1 integrins was then investigated by direct and competitive ELISA with integrins adsorbed on microtiterplates.

EA.hy926 cells = assay: EA.hy926 cell adhesion assay on coated microtiter plates; format: cell-based, human; details: for EA.hy926 cell adhesion to coated product after heat-treatment: 0.1 M ammonium bicarbonate buffer, pH 8.5, 16 h at 37° C.; for EA.hy926 cell adhesion to coated product: before heat treatment
Method: Adhesion of EA.hy926 cells to microtiter plates coated with various peptides and proteins before and after accelerated aging. Accelerated aging was performed by peptide incubation in 0.1 M ammonium bicarbonate buffer, pH 8.5, for 16 h at 37° C. (“heat-treatment”). Adhesion to: recombinant FN-I4-5 or control protein (FN-I4-5 (SGS)) (A), synthetic FN-I5 (B), recombinant CNGRC-TNF, CNGRC-TNF1-11 and control CARAC-TNF1-11 peptide (C), CDGRC-TNF (D). Heat-treated (37° C.) and untreated (−20° C.) products were adsorbed onto the plastic surface of microtiter wells (overnight at 4° C.). Microphotograph of wells coated with 30 μg/ml of heat-treated FN-I5 or BSA (B, right) or with 10 μg/ml of recombinant CNGRC-TNF or CDGRC-TNF (C, right), ×200. Cell adhesion assay was carried out as described in Materials and Methods. The TNF fusion constructs, including the TNF1-11 fusion constructs, were made as described Materials and Methods, and include a “G” linker.
Untreated and “heat treated” fibronectin fragments, peptides and peptide-TNF conjugates were diluted at the desired concentration with 150 mM sodium chloride, 50 mM sodium phosphate, pH 7.3, and added to 96-well polyvinyl chloride microtiter plates (Falcon, Becton Dickinson). After overnight incubation at 4° C., the plates were washed, seeded with EA.hy926 cell in DMEM containing 0.1% BSA (40000 cells/well) and left to incubate for 2-3 h at 37° C., 5% CO2. Adherent cells were fixed and stained with crystal violet as described (Curnis et al., 2005).

L-M mouse fibroblasts = assay: standard cytolytic assay with L-M mouse fibroblasts; format: cell-based; details: in vitro, L-M murine fibroblasts
Source text: Protein purity and identity were checked by SDS-PAGE, electrospray mass spectrometry and gel-filtration chromatography.
The cDNA coding for DGR-TNF (mouse TNF fused with the C-terminus of CDGRCG (SEQ ID NO: 24)) was obtained by PCR on NGR-TNF plasmid, using the following primers: 5′ […] 3′ (SEQ ID NO: 43) (5′ primer); 5′ […] ′3 (SEQ ID NO: 44) (3′ primer). Both primers were designed to allow the directional cloning into a pET101/D-TOPO plasmid expression kit (Invitrogen). The underlined sequence in 5′ primer contains the sequence necessary to enable the directional cloning and the initial translation codon whereas the 3′ primer contains the stop codon (underlined). The PCR reaction and the cloning procedure were performed as recommended by the manufacturer's instruction. […] The column was washed extensively 100 mM Tris-HCl buffer containing pH 8.0, loaded with DGR-TNF crude extract, diluted in 20 mM Tris-HCl buffer conatining 2 mM EDTA pH 8.0, and desorbed by elution with 7 M urea, 100 mM Tris-HCl, pH 8.0. DGR-TNF was then refolded as described (1). Briefly, the denatured products were dialyzed against 2.33 M urea, 100 mM Tris-HCl, pH 8.0 at 4° C. (140 min), followed by 1.55 M urea, 100 mM Tris-HCl, pH 8.0 (140 min), and 1 M urea, 100 mM Tris-HCl, pH 8 (140 min). Finally the products were dialyzed against 100 mM Tris-HCl, pH 8.0 (48 h). The products were centrifuged at 13000×g (10 min, 4° C.) and concentrated by ultra-filtration through a 10 KDa cut-off filter. All solutions used in the purification and refolding steps were prepared with sterile and endotoxin-free water (S.A.L.F. Laboratorio Farmacologico SpA, Bergamo, Italy). Protein concentration was measured using the BCA Protein Assay Reagent (Pierce, Rockford, Ill.). Protein purity and identity were checked by SDS-PAGE, electrospray mass spectrometry (ESI-MS) and analytical gel-filtration chromatography.

T2 sequence (P06756 31-889 limits assumed): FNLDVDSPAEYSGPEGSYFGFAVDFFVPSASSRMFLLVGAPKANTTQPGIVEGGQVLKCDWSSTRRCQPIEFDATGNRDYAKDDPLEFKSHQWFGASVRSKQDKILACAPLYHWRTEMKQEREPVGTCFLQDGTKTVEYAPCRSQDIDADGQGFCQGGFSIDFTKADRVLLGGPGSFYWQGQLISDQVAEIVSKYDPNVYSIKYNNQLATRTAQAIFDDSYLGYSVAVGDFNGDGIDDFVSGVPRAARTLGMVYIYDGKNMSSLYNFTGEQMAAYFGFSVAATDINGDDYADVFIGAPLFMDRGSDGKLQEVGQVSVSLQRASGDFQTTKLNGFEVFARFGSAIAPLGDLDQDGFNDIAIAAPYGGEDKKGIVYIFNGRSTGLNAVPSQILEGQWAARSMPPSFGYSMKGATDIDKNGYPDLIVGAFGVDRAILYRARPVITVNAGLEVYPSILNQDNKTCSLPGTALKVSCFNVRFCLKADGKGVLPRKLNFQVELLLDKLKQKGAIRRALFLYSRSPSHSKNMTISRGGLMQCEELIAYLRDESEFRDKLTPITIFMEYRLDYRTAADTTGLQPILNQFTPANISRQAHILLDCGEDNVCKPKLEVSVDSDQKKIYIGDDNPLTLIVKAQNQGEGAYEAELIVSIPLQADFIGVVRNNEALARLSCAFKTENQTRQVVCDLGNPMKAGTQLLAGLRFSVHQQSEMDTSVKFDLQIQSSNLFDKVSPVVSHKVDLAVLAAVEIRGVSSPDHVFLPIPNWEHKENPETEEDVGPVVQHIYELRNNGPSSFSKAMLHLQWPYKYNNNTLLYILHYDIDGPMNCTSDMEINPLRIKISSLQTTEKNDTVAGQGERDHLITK
T2 sequence (P06756 891-1048 partner limits assumed): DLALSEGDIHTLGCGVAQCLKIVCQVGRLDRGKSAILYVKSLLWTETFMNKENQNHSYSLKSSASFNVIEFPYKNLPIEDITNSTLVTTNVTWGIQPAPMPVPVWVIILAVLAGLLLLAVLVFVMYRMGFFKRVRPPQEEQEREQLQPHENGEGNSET
T2 sequence (P05106 27-788): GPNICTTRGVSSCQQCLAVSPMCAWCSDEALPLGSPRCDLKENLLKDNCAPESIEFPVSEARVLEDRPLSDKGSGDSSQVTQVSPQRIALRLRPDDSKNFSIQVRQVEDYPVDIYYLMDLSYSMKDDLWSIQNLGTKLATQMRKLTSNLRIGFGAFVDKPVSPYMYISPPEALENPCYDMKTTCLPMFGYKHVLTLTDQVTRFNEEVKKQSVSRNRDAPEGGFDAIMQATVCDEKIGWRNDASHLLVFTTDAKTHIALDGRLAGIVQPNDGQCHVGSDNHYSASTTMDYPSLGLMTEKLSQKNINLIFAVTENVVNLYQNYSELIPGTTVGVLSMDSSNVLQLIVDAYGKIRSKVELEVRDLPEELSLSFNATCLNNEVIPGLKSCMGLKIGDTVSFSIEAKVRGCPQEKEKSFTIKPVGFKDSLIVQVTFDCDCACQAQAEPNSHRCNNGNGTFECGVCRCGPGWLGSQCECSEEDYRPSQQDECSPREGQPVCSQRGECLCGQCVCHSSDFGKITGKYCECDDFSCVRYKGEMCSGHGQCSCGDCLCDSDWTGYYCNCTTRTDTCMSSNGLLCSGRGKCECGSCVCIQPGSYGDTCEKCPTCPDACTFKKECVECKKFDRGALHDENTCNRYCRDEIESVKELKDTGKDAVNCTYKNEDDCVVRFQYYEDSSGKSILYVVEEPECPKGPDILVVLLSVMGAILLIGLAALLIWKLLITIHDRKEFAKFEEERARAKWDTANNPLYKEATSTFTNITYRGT
T1 sequence (P05106 27-788 limits assumed): as the sequence (P05106 27-788) above
T1 sequence (P06756 31-889 limits assumed): as the sequence (P06756 31-889 limits assumed) above
T1 sequence (P06756 891-1048 limits assumed): as the sequence (P06756 891-1048 partner limits assumed) above

Compound: CC(C)[C@H](NC(=O)CNC(=O)[C@@H]1CSSC[C@H](N)C(=O)N[C@@H](CC(N)=O)C(=O)NCC(=O)N[C@@H](CCCNC(=N)N)C(=O)N1)C(=O)N[C@@H](CCCNC(=N)N)C(=O)N[C@@H](Cc1ccc(O)cc1)C(=O)O [NGR-pep, CNGRCGVRY] (H-CNGRCGVRY-OH; disulfide 1-5; N-terminus and C-terminus assumed)
- stability when stored in water ([1]; 37° C., water): stable for more than one week
- half-life ([1]; ammonium bicarbonate buffer and DMEM, 37° C., pH 8.5 ammonium bicarbonate and DMEM pH 7.3 (FIG. 5 legend), read-out: half-life of conversion to DGR-pep and isoDGR-pep): 120 to 240 min
- half-life ([1]; ammonium bicarbonate buffer, pH 8.5 (0.1 M ammonium bicarbonate), 37° C., read-out: half-life (height of main chromatographic peak) (converted)): ~120 min
- half-life ([1]; pH 7.3 (DMEM), 37° C., read-out: half-life (height of main chromatographic peak) (converted)): ~240 min
- pIC50 (αvβ3): 4.60

Compound: CC(C)[C@H](NC(=O)CNC(=O)[C@@H]1CSSC[C@H](N)C(=O)N[C@@H](CC(=O)O)C(=O)NCC(=O)N[C@@H](CCCNC(=N)N)C(=O)N1)C(=O)N[C@@H](CCCNC(=N)N)C(=O)N[C@@H](Cc1ccc(O)cc1)C(=O)O [DGR-pep] (H-CDGRCGVRY-OH; disulfide 1-5; N-terminus and C-terminus assumed)
- pIC50 (αvβ3): 4.22

Compound: FN-I4-5: recombinant human fibronectin 4-5th type I repeats, residue 184-273, His-tag at the N-terminus
- competition of the binding of FN-I5 to αvβ3 (αvβ3 integrin): could compete
- EA.hy926 cell adhesion to coated product after heat-treatment (EA.hy926 cells): increase of cell adhesion
- EA.hy926 cell adhesion to coated product (EA.hy926 cells): promoted cell adhesion

Compound: CC(C)[C@H](NC(=O)CNC(=O)[C@@H]1CSSC[C@H](N)C(=O)N[C@H](C(=O)O)CC(=O)NCC(=O)N[C@@H](CCCNC(=N)N)C(=O)N1)C(=O)N[C@@H](CCCNC(=N)N)C(=O)N[C@@H](Cc1ccc(O)cc1)C(=O)O [isoDGR-pep] (H-C[βAsp]GRCGVRY-OH; disulfide 1-5 (inferred); N-terminus and C-terminus assumed)
- stability under integrin binding assay conditions [1]: stable

Compound: CC(C)[C@H](NC(=O)CNC(=O)[C@@H]1CSSC[C@H](N)C(=O)N[C@H](CC(=O)O)C(=O)NCC(=O)N[C@@H](CCCNC(=N)N)C(=O)N1)C(=O)N[C@@H](CCCNC(=N)N)C(=O)N[C@@H](Cc1ccc(O)cc1)C(=O)O [DDGR-pep] (H-C[dD]GRCGVRY-OH; disulfide 1-5 (inferred); N-terminus and C-terminus assumed)
- stability under integrin binding assay conditions [1]: stable

Compound: Loop-GNGRG: peptide corresponding to the NGR loop of FN-I5 (LQCISTGNGRGEWKCE)
- competition of the binding of FN-I5 to αvβ3 (αvβ3 integrin): Binding competition was observed

Compound: CC(C)[C@H](NC(=O)CNC(=O)[C@@H]1CSSC[C@H](N)C(=O)N[C@@H](CO)C(=O)NCC(=O)N[C@@H](CCCNC(=N)N)C(=O)N1)C(=O)N[C@@H](CCCNC(=N)N)C(=O)N[C@@H](Cc1ccc(O)cc1)C(=O)O [SGR-pep] (H-CSGRCGVRY-OH; disulfide 1-5; N-terminus and C-terminus assumed)
- pIC50 (αvβ3): < 3.00

Compound: Loop-RGGNG: control loop peptide of FN-I5 with scrambled sequence at the GNGRG site (LQCISTRGGNGEWKCE) [reference compound]
- competition of the binding of FN-I5 to αvβ3 (αvβ3 integrin): not

Compound: Cys-Asp-Gly-Arg-Cys-Gly-(SEQ ID NO: 24)TNF [CDGRC-TNF]
- Cytolytic Activity (L-M mouse fibroblasts): 2.59 (±0.69)×10^8 U/mg
- Cytolytic Activity (L-M mouse fibroblasts; listed as DGR-TNF): 2.5×10^8 U/mg
- EA.hy926 cell adhesion to coated product after heat-treatment (EA.hy926 cells): completely inactive
- EA.hy926 cell adhesion to coated product (EA.hy926 cells): completely inactive
